Data on seven molecules can be found in patent US6056966A, “Method and compositions for treating impotence” (Baker Norton Pharmaceuticals, Inc., priority 1998, dated 2000).

In series [1] the test system is guinea pig penis. As to the kind of experiment: Topical application of nitrates to the penis of guinea pigs (change in penile volume). It counts as in vivo, male outbred Hartley guinea pigs. Conditions: for AUC / Peak Effect (% change) / Time of Peak Effect / AUC, % of 1,5-PDN / Peak Effect, % of 1,5-PDN: guinea pig, in vivo. The source says:
Sixteen (16) male outbred Hartley guinea pigs were weighed and placed into treatment groups as follows:
The animals were placed in dorsal recumbency and held in place by restraints. The penis was extruded from the prepuce. Care was taken to not manipulate the penis. Length and diameter measurements were made using digital calipers. The length measurement was taken from the prepuce to the tip of the glans when the penis was extended. The diameter was taken 0.5 cm proximally from the tip of the glans.
The appropriate amount of test material was applied with a Wiretrol™ pipette to the base of the exposed penis. When application was complete, a timer was started. Measurements were taken at 0, 1, 2, 5, 10 and 15 minutes after application or until detumescence was observed.
The same procedure was followed to topically apply a series of various other nitrate and dinitrate compounds (in neat form) to the penis of guinea pigs. A summary of the activity of this series of nitrate compounds is shown in Table 2, with the AUC and peak effect values for each compound compared to 1,5-PDN.
The same test procedure was followed as in Example 3, but applying a 10% solution of NTG to the penis in varying dosage amounts.
Twelve (12) male Hartley guinea pigs were placed into treatment groups as follows: […]

Series [2] relates to penile smooth muscle. Particulars: cited from earlier work.
The test system of series [3] is corpus cavernosum. The experiment in a line: Intracavernosal injection in anesthetized rats (cavernosal and arterial blood pressure).
The nature of series [4]: Intravenous injection of NTG vs. 1,5-pentane dinitrate in conscious rats (mean arterial blood pressure). Conditions: 30 μg. It counts as in vivo, rat. The procedure:
Rats (n=3) with indwelling catheters in the femoral artery for blood pressure measurements and vein for drug administration were given 1 dose of NTG (30 μg) and 6 doses of 1,5-PDN (30 μg-2000 μg) or vehicle (ethanol) in the conscious state. Changes in mean arterial blood pressure (diastolic blood pressure+1/3 (systolic-diastolic blood pressure)) were assessed after each dose of nitrate was given. About 0.5 hr to 1 hr separated the administration of each drug and dose.

In series [5] the test system is penis. Particulars: cited from earlier work.
Series [6] deals with rat aortic rings. As to the kind of experiment: Vascular reactivity: relaxation of rat aortic rings precontracted with phenylephrine. Particulars: FIG. 11, rat aortic strips. It counts as cell-based, Sprague-Dawley rats. An excerpt: Aortic rings (2-3 mm wide) from Sprague-Dawley rats were isolated and placed in a tissue bath. The vessels were precontracted with small amounts of phenylephrine. A transducer connected to a recorder was used to assess changes in tension. As noted in FIG. 10, there was no difference in vascular relaxation, either in potency or efficacy, between 1,5-PDN and 1,5-pentane dinitrite.

“Also recorded” adds a separate entry of the source.

Take `CC(C)CO[N+](=O)[O-]` [Isobutyl nitrate]: in series [1], the AUC worked out at 367, the “Peak Effect (% change)” value came out at 38.1 % change and the “Time of Peak Effect” value is given as 2 min.

Consider `CC(C)CCO[N+](=O)[O-]` [Isoamyl nitrate], for which, in series [1], the AUC is reported as 309; the “AUC, % of 1,5-PDN” value is 70%; the “Peak Effect (% change)” value turned out to be 40.3 % change; the “Peak Effect, % of 1,5-PDN” value came to 104%. The “Time of Peak Effect” value in series [1] is recorded as 2 min.

As to `CCCC(C)O[N+](=O)[O-]` (centres unmarked) [2-Pentane nitrate], in series [1], the AUC is reported as 323; the “AUC, % of 1,5-PDN” value worked out at 73%; the “Peak Effect (% change)” value is on record as 36.0 % change; the “Peak Effect, % of 1,5-PDN” value was 93%. Also, in series [1], the “Time of Peak Effect” value was found to be 5 min.

With `O=[N+]([O-])OCC(CO[N+](=O)[O-])O[N+](=O)[O-]` [NTG, nitroglycerin], the “effect on penile volume” value in series [1] (topical, FIGS. 1-3, 1,5-PDN vs saline, 10% NTG solution vs 1,5-PDN) is “minimal effect on penis volume as compared to 1,5-PDN”. In series [2] (in vivo), the “headache, systemic blood pressure” value was “headaches were a common occurrence; also recorded: decrease in systemic blood pressure and development of headache”; the “relaxation of penile smooth muscle and vascular tissue” value is “causes relaxation of penile smooth muscle and vascular tissue, including cavernosal tissue”. Moreover, in series [2] (only one trial), the “response compared with papaverine or placebo” value was “better than papaverine, another vasodilator, or placebo”. Besides, in series [3] (anesthetized rats, FIGS. 6-8), the “change in intracavernosal pressure” value is reported as “relatively small, dose-dependent increases in intracavernosal pressure” and the “effect on systemic arterial blood pressure” value is reported as “almost equivalent systemic ("downstream") reductions in arterial blood pressure”. The “systemic reduction in arterial blood pressure” value in series [3] (at the highest dose used) is “over 30 mmHg”. In series [4], the “decrease in arterial pressure” value is about 25%. Further, the “patients with erections sufficient for vaginal penetration” value in series [5] (at home) is listed as 30 % of patients. Besides, the “patients with some response” value in series [5] (in vivo) is listed as 71 % of patients. The “vascular relaxation: NTG vs 1,5-PDN” value in series [6] was “no appreciable difference in the vascular relaxation”.

Turning to `C=CCCCO[N+](=O)[O-]` [1-Pentene-5-nitrate], in series [1], the AUC is 309; the “AUC, % of 1,5-PDN” value amounted to 70%; the “Peak Effect (% change)” value is given as 35.4 % change; the “Peak Effect, % of 1,5-PDN” value was 91%. For the same molecule, the “Time of Peak Effect” value in series [1] is 2 min.

As to `CC(C)=CCO[N+](=O)[O-]` [2-Methyl-2-butene-4-nitrate], in series [1], the AUC was 305; the “AUC, % of 1,5-PDN” value was determined as 69%; the “Peak Effect (% change)” value is 32.6 % change; the “Peak Effect, % of 1,5-PDN” value is 84%. Moreover, in series [1], the “Time of Peak Effect” value turned out to be 5 min.

`O=[N+]([O-])OC1CCCC1` [Cyclopentyl nitrate]: in series [1], the AUC came to 380; the “AUC, % of 1,5-PDN” value was 86%; the “Peak Effect (% change)” value stood at 31.8 % change; the “Time of Peak Effect” value turned out to be 10 min.
